Columns and labels:
Male Swiss Webster mice [1] = experiment: Tail suspension test; format: in vivo
Source text: Compound 1, (7-(2,6-dichlorophenyl)-5-fluoro-2,3-dihydrobenzofuran-2-yl)methanamine, was used to exemplify the effectiveness of compounds of the present invention in the tail suspension test. While not a direct model of depression, the tail suspension test is an assay that can evaluate antidepressant-like effects of drugs. Clinically effective drugs such as Prozac (fluoxetine) are effective in this assay. Specifically, they decrease the amount of time the mice spend immobile after being hung upside down by their tails during the test. It is impossible to determine if a mouse is indeed depressed. However, the fact that clinically effective antidepressants reduce immobility lends predictive validity to the model.
Male Swiss Webster mice (Charles River) weighing 20-35 g were used throughout this study. They were housed in groups of five per cage in an AALAC-accredited facility that was maintained on a 12-h light dark cycle (lights on at 0600 h) and had free access to food and water. Experimental groups consisted of 12 mice, randomly assigned to treatment groups. All experiments were performed between 9:00 AM and noon in accordance to the Guide for the Care and Use of Laboratory Animals as adopted and promulgated by the National Institutes of Health (Pub. 85-23, 1985).
Solutions of Compound 1 and paroxetine were freshly prepared. Compound 1 was dissolved in saline and paroxetine was dissolved in distilled water. All drugs were injected i.p. at a volume of 10 ml/kg body weight. Combination treatments were cotreated, 30 minutes prior to the test.
The procedure followed in this study was a variant of the one originally described by Steru et al. (1985). […] The time spent immobile during a 6-minute test session was automatically recorded. […] Data collected were expressed as a mean of immobility time and statistical analysis was performed using a one-way ANOVA with least significant difference (LSD) post-hoc test.

Male Swiss Webster mice [2] = conditions: general statement on clinically effective drugs; cited from earlier work

## NCC1Cc2cc(F)cc(-c3c(Cl)cccc3Cl)c2O1 (stereo not shown) [Compound 1, (7-(2,6-dichlorophenyl)-5-fluoro-2,3-dihydrobenzofuran-2-yl)methanamine]
Male Swiss Webster mice [1]; Compound 1 0.1 mg/kg i.p. alone, 30 minutes prior to test, 6-minute session
  produced antidepressant-like effects alone: Neither

## CNCCC(Oc1ccc(C(F)(F)F)cc1)c1ccccc1 (stereo not shown) [Prozac, N-methyl-3-(p-trifluoromethylphenoxy)-3-phenylpropylamine]
Male Swiss Webster mice [2]
  effectiveness in the tail suspension assay (decrease of time spent immobile): effective

## Fc1ccc([C@@H]2CCNC[C@H]2COc2ccc3c(c2)OCO3)cc1 [paroxetine, trans-(−)-3-[(1,3-benzodioxol-5-yloxy)methyl]-4-(4-fluo-rophenyl)piperidine]
Male Swiss Webster mice [1]; paroxetine 10 mg/kg i.p. dosed alone
  decrease in immobility time: 5%
Male Swiss Webster mice [1]; paroxetine 30 mg/kg i.p. dosed alone
  decrease in immobility time: 4%

From patent publication US7396857B2, “Therapeutic combinations for the treatment or prevention of depression” (Wyeth, priority 2005, dated 2008)
